Data published in patent publication US20140066394A1, “Substituted 6-(Benzylamino) Purine Riboside Derivatives, Use Thereof and Compositions Containing These Derivatives” (Biopatterns, S.R.O, priority 2009, published 2014).

Assay: Solubility noted on isolation of the product
Assay type: physicochemical
Details: qualitative, solvent as stated
Protocol: 2-Benzylmercapto-6-(2-hydroxy-3-methoxybenzylamino)purine riboside (1.18 g) was dissolved in liquid ammonia (125 mL) to yield a clear yellow solution. […]. Sodium was added in small portions until the blue colouration persisted for 15 mins A small amount of solid ammonium chloride was added cautiously to remove excess Na. The ammonia was evaporated to a small volume on a hot plate and ether (125 mL) added (to remove bibenzyl formed as a by-product). After most of the remaining ammonia had been evolved the ether extract was extracted with water (2×65 mL). The aqueous extrakt (at pH 12 to 13) was adjusted to 5 with AcOH cooling to below 10 on dry ice. A creamy solid precipitated. The solid was filtered, washed thoroughly with water and dried overnight over calcium chloride to yield a virtually white, very light powder. Yield: 760 mg. 2-Mercapto-6-(2-hydroxy-3-methoxybenzylamino)purine riboside gives a sharp, symmetrical peak on HPLC (300 nm) and moves readily on TLC in MeOH/chloroform mixtures. […] EtOH solution develops strong yellow colour on standing at room temperature for several days.
2-Methylmercapto-6-chloropurine riboside (3.3 g, 10 mmol) was refluxed with 2-hydroxy-3-methoxybenzylamine ([…], 12 5 mmol) in butanol (100 mL) containing triethylamine (3.2 mL) for 2 h. The butanol was removed under vacuum at 50 to 60° C. […]

COc1cccc(CNc2nc(S)nc3c2ncn3[C@@H]2O[C@H](CO)[C@@H](O)[C@H]2O)c1O [Compound 71, 2-Mercapto-6-(2-hydroxy-3-methoxybenzylamino)purine riboside]
solubility: soluble in EtOH

COc1cccc(CNc2nc(SC)nc3c2ncn3[C@@H]2O[C@H](CO)[C@@H](O)[C@H]2O)c1O [Compound 87, 2-Methylmercapto-6-(2-hydroxy-3-methoxybenzylamino)purine riboside]
solubility: very soluble in methanol and water
